How the values were obtained:
MARC-145 cells = test: Virus titration of treated PRRSV on MARC-145 cells (inactivation curve); format: cell-based; settings: four hours at 37° C.
Experimental: Formaldehyde was then removed by ultracentrifugation. Inactivation with glutaraldehyde was performed with purified virus (10^7 TCID50/ml) that was incubated for four hours at 37° C. with different concentrations (0-0.005-0.05-0.5-5 or 50 ng/ml) glutaraldehyde (Sigma) (Darnell et al., 2004). Glutaraldehyde was removed by ultracentrifugation afterwards. For inactivation with 2,2-dithiodipyridine (AT-2), purified virus (10^7 TCID50/ml) was incubated for four hours at 37° C. with different concentrations (0-10-30-100-300 or 1000 μM) AT-2 (Aldrich) (Rossio et al., 1998; Chertova et al., 2003). Afterwards, AT-2 was removed by ultracentrifugation. For inactivation by changing the pH, the pH was adjusted with HCl of 32% to pH2 and with NaOH to pH12. Purified virus (10^7 TCID50/ml) was incubated for several hours at a pH2 or at a pH12. After incubation, the pH was neutralized (Darnell et al., 2004). For inactivation of PRRSV at a certain temperature, purified virus (10^7 TCID50/ml) was incubated for several (0-6-12-24-48 or 72) hours at 37° C. […]
Virus titration was performed in a 96-well plate with a confluent monolayer of MARC-145 cells. […] After three to five days incubation at 37° C., the occurrence of cytopathic effect (CPE) was investigated and the 50% tissue culture infective dose (TCID50) could be calculated. […]

macrophages = test: Attachment, internalization, fusion and replication of inactivated PRRSV in macrophages by immunostaining and confocal microscopy; format: cell-based, porcine; settings: 1 hpi
Text: The European strain Lelystad virus (LV) of PRRSV (Wensvoort et al., 1991) grown on MARC-145 cells (5th passage) was used for inactivation. MARC-145 cells cultivated in minimum Eagle's medium (MEM) with 5% FCS, 1% glutamine, 1% penicillin-streptomycin and 1% kanamycin were used for LV production and titration of inactivated virus. Attachment and internalization of the inactivated virus was investigated in macrophages that where cultivated in medium containing RPMI 1640, 10% FCS, 1% penicillin-streptomycin, 1% kanamycin, 1% gentamycin, 1% tylosin, 1% glutamine, 1% nonessential amino acids and 1% sodium pyruvate for 24 hours before inoculation. When CHO cells were used, the cells were cultivated in F12 with 10% FCS, 1% penicillin-streptomycin, 1% kanamycin, 1% glutamine, and 1% sodium pyruvate and were transfected with sialoadhesin. As the macrophages, the CHO cells were also cultivated 24 hours before inoculation. […]
Macrophages, CHO^Sn or CHO^Sn-CD163 cells were seeded at 200,000 cells/ml in a 24-well plate with insert. […] The virus particles were counted with a confocal microscope.

[1] = test system: CHO^Sn-CD163 cell line IC5; test: Binding, internalization, fusion and infection in CHO^Sn-CD163 cell line IC5; format: cell-based, Chinese Hamster
Experimental: (§1) Macrophages or CHO cells (including CHO^Sn and CHO^Sn-CD163 cells, i.e., the CHO cells expressing sialoadhesin and CD163 deposited on May 14, 2008 at the Belgian Coordinated Collections of Microorganisms as CHO^Sn/CD163 IC5; CHO^Sn/CD163 ID9 and CHO^Sn/CD163 IF3 with the respective accession numbers (LMBP 6677CB, LMBP 6678CB, and […]) were incubated for one hour at 37° C. with the treated PRRSV and fixed with methanol. Then the capsid protein was stained with a primary antibody P3/27 and a secondary antibody goat-anti-mouse FITC. Confocal analysis was performed to determine the amount of internalized PRRSV.
(§2) Macrophages, CHO^Sn or CHO^Sn-CD163 cells were seeded at 200,000 cells/ml in a 24-well plate with insert. After two days, the cells were inoculated with wild-type Lelystad Virus (LV) grown on MARC-145 cells and inactivated LV grown on MARC-145 cells. The cells were fixed with methanol after one hour at 4° C. (binding; 0 hpi), one hour at 37° C. (internalization), five hours at 37° C. […] (infection) and 24 hours at 37° C. (infection). The virus was stained with a primary antibody P3/27 (anti-capsid) and a secondary antibody goat-anti-mouse FITC. The virus particles were counted with a confocal microscope.

[2] = test system: CHO^Sn-CD163 cell line ID9; test: Binding, internalization, fusion and infection in CHO^Sn-CD163 cell line ID9; format: cell-based, Chinese Hamster
Experimental: as §1, §2

[3] = test system: CHO^Sn-CD163 cell line IF3; test: Binding, internalization, fusion and infection in CHO^Sn-CD163 cell line IF3; format: cell-based, Chinese Hamster
Experimental: as §1, §2

Question: For C=O [formaldehyde], which “infectious virus detected by titration” value (MARC-145 cells; lowest concentration of 10 pg/ml formaldehyde) is on record?
Answer: Its value is “no infectious virus detected”.

Question: And the internalization in macrophages (macrophages; 0.1 ng/ml formaldehyde)?
Answer: The internalization in macrophages was “no longer able to internalize”.

Question: What about the “Binding (particles counted at 0 hpi)” value [1] of the same compound?
Answer: The value was 0 particles.

Question: What about the “Fusion (particles counted at 5 hpi)” value [1] of the same compound?
Answer: Its value is 0 particles.

Question: What about the “Infection 12 hpi (%)” value [1] of the same compound?
Answer: Its value is 0%.

Question: And the “Infection 24 hpi (%)” value [1]?
Answer: The value was 0%.

Question: What about the “Internalization (particles counted at 1 hpi)” value [1] of the same compound?
Answer: The value was 0 particles.

Question: And the “Binding (particles counted at 0 hpi)” value [2]?
Answer: Its value is 2 particles.

Question: What about the “Fusion (particles counted at 5 hpi)” value [2] of the same compound?
Answer: Its value is 0 particles.

Question: What about the “Infection 12 hpi (%)” value [2] of the same compound?
Answer: Its value is 0%.

Question: And the “Infection 24 hpi (%)” value [2]?
Answer: The value was 0%.

Question: And the “Internalization (particles counted at 1 hpi)” value [2]?
Answer: Its value is 0 particles.

Question: What about the “Binding (particles counted at 0 hpi)” value [3] of the same compound?
Answer: The value was 1 particles.

Question: What about the “Fusion (particles counted at 5 hpi)” value [3] of the same compound?
Answer: The value was 1 particles.

Question: What about the “Infection 12 hpi (%)” value [3] of the same compound?
Answer: Its value is 0%.

Question: And the “Infection 24 hpi (%)” value [3]?
Answer: Its value is 0%.

Question: And the “Internalization (particles counted at 1 hpi)” value [3]?
Answer: Its value is 0 particles.

Question: What does the source list for O=CCCCC=O [glutaraldehyde]?
Answer: infectious virus detected by titration (MARC-145 cells; 0.5 ng/ml glutaraldehyde or more): no infectious virus could be detected; internalization in macrophages (macrophages; 50 ng/ml glutaraldehyde): no longer able to internalize; Binding (particles counted at 0 hpi) [1]: 1 particles; Fusion (particles counted at 5 hpi) [1]: 0 particles; Infection 12 hpi (%) [1]: 0%; Infection 24 hpi (%) [1]: 0%; Internalization (particles counted at 1 hpi) [1]: 0 particles; Binding (particles counted at 0 hpi) [2]: 0 particles; Fusion (particles counted at 5 hpi) [2]: 0 particles; Infection 12 hpi (%) [2]: 0%; Infection 24 hpi (%) [2]: 0%; Internalization (particles counted at 1 hpi) [2]: 0 particles; Binding (particles counted at 0 hpi) [3]: 2 particles; Fusion (particles counted at 5 hpi) [3]: 1 particles; Infection 12 hpi (%) [3]: 0%; Infection 24 hpi (%) [3]: 0%; Internalization (particles counted at 1 hpi) [3]: 0 particles
